# In patent publication US11028051B2, “Tetrahydroquinoline-based bromodomain inhibitors” (St. Jude Children's Research Hospital, priority 2016, dated 2021):
# Like-named read-outs stand apart in the source and are kept apart here.
# Tests used:
# [1] = tested on: c-Myc oncogene expression; details: previous study with BD2-selective BET inhibitor; cited from earlier work
# [2] = tested on: NALM-16; assay: anti-proliferative activity; assay type: cell-based; details: NALM16; Table 5
# Description: (§1) After 7 days of treatment, an equal volume of CellTiter-Glo reagent (G7572, Promega) was added and the luminescence signal was measured using an automated Envision plate reader (Perkin-Elmer). Luminescence data were normalized by log10 transformation prior to calculating the percent inhibition using the following equation:
# (§2) 100*(negative control mean −compound value)/(negative control mean −positive control mean).
# [3] = tested on: c-Myc expression in HDMB03 cells; assay: c-Myc expression inhibition, high content microscopy (HCM); assay type: cell-based, human; details: Homo sapiens
# Description: 3000 human G3 medulloblastoma or 2000 mouse SHH medulloblastoma cells per well were plated into 384-well plates (6007710, Perkin Elmer) in 30 μL of supplemented neurobasal medium using a Wellmate automated dispenser (Thermo Matrix). After 24 hours, 125 nl of compound was transferred via pin tool, resulting in a final drug concentration from 2 nM to 40 μM. 72 hours after adding the drug, the plates were fixed with 4% formaldehyde for 20 min. After fixation the cells were then washed 3 times with 75 μl of PBS. The cells were then permeabilized with 0.1% Triton-X 100 for 15 minutes at 25° C. and blocked using 1% BSA in PBS for 1 hour at 25° C. The primary antibody against c-Myc Ab (#9402, Cell Signaling) at a 1:400 dilution was diluted in 1% BSA in PBS. This mixture was added to each well before incubation overnight at 4° C. Each well was then washed 3 times with PBS using a Biotek ELX405 Select plate washer, and incubated for 1 hour at 25° C. with a solution containing 1/400 goat α-rabbit-Alexa-488 (4412S, Cell Signaling) and 1 μM Hoechst 33342 to detect nuclear material (H3570, Molecular Probes). Two images were captured of each well at 10× using a GE Healthcare InCell 6000 at 405 nM to detect nuclear staining and 488 nM to detect c-Myc. All data were analyzed using the multi-target analysis algorithm of the GE InCell Analyzer Workstation software. The number of nuclear objects in each well, as well as all nuclear measurements, was determined through nuclear masks over the Hoechst staining. C-Myc staining was then measured using top-hat segmentation in the entire cell.
# [4] = tested on: HDMB03 cells; assay: cell viability, CellTiter-Glo; assay type: cell-based, human; details: Homo sapiens
# Description: Human G3 medulloblastoma or mouse SHH medulloblastoma cells were grown as neurospheres in supplemented neurobasal medium, as previously described (Kawauchi et al., 2012.)
# as §1, §2
# High-throughput assay data were analyzed using Robust Interpretation of Screening Experiments (RISE) application written in Pipeline Pilot (Accelrys, v. 8.5) and the R program (R Development Core Team).
# Dose-response curves were calculated by regressing the median percent inhibition obtained over triplicate experiments to log 10-transformed concentrations. Non-linear regression was then performed using the R drc package with the four parameter log-logistic function (LL2.4) (Ritz and Streibig, 2009). Curves were fit under three different constraints: (1) all parameters free, (2) high response fixed to 100, (3) low response fixed to 0; and the best fit from these three nested models was selected using the anova.drc function.
# [5] = molecular target: BRDT (Homo sapiens, UniProt Q58F21); assay: competitive TR-FRET assay, BET-BD with acetylated peptide ligand; assay type: binding; details: for EC50: Table 4, read-out: BRDT EC50; for IC50: Table 2, inhibitor potency by TR-FRET
# Description: (§3) Inhibitor potency was determined using a competitive TR-FRET assay as detailed herein, measuring interaction of the respective BET-BD with an acetylated peptide ligand (Table 2).
# [6] = molecular target: BRD4-BD2 (Homo sapiens (Human), UniProt O60885); assay: as above; assay type: binding; details: for 4(1)/4(2): Table 4, ratio of EC50; for EC50: Table 4, read-out: EC50 (μM) BRD4(2); for IC50: Table 2, inhibitor potency by TR-FRET
# Description: as §3
# [7] = molecular target: BRD3-BD1 (Homo sapiens (Human), UniProt Q15059); assay: as above; assay type: binding; details: for EC50: Table 4, read-out: BRD3(1); for IC50: Table 2, inhibitor potency by TR-FRET
# Description: as §3
# [8] = molecular target: T1, BRD2-BD2 (Homo sapiens (Human), UniProt P25440); assay: as above; assay type: binding; details: for [2(1)/2(2)]: Table 4, ratio of EC50; for EC50: Table 4, read-out: EC50 (μM) BRD2(2); for IC50: Table 2, inhibitor potency by TR-FRET; for BD1/BD2: Table 2, ratio BRD2-BD1/BRD2-BD2
# Description: as §3
# Target sequence in this assay (P25440 344-453): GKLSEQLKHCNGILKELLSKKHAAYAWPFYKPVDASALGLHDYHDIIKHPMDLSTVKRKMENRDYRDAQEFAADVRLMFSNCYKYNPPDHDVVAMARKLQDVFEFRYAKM
# [9] = molecular target: T2, BRD2-BD1 (Homo sapiens (Human), UniProt P25440); assay: as above; assay type: binding; details: for EC50: Table 4, read-out: EC50 (μM) BRD2(1); for IC50: Table 2, inhibitor potency by TR-FRET
# Description: as §3
# Target sequence in this assay (P25440 74-180): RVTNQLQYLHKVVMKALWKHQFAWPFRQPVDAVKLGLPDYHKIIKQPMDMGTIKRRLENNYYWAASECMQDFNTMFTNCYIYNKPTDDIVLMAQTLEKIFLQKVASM
# [10] = molecular target: BRD4-BD1 (Homo sapiens (Human), UniProt O60885); assay: as above; assay type: binding; details: for EC50: Table 4, read-out: EC50 (μM) BRD4(1); for IC50: Table 2, inhibitor potency by TR-FRET
# Description: as §3
# [11] = molecular target: BRD2(1) (Homo sapiens (Human), UniProt P25440); assay: BROMOscan KD determination; assay type: binding; details: Table 10
# Description: (§4) DiscoverX® can screen compounds against all ˜42 bromodomains (a service called BROMOscan) and perform follow-up KD determination. This service is considered the industrial standard for bromodomain inhibitor comparisons. […] Dots are symbolic of inhibition of the compound at this concentration; the larger the size of the dot, the greater the activity of the compound. […] Though these compounds are selective for the BET family, the selectivity within the BET family is poor. The results of a competitive binding experiment between compounds 19 (left), 41 (center), and 56 (right) (at a single concentration, 1 μM) and a control for each of the bromodomains are shown in FIG. 5.
# [12] = molecular target: BRDT(2) (Homo sapiens (Human), UniProt Q58F21); assay: BROMOscan KD determination; assay type: binding
# Description: as §4
# [13] = molecular target: BRD2(2) (Homo sapiens (Human), UniProt P25440); assay: BROMOscan KD determination; assay type: binding
# Description: as §4
# [14] = molecular target: BRDT(1) (Homo sapiens (Human), UniProt Q58F21); assay: BROMOscan KD determination; assay type: binding; details: Table 10
# Description: as §4
# [15] = tested on: SEM cells; assay: anti-proliferative activity; assay type: cell-based; details: Table 5
# Description: as §1, §2
# [16] = molecular target: BRD4(2) (Homo sapiens (Human), UniProt O60885); assay: BROMOscan KD determination; assay type: binding
# Description: (§5) DiscoverX® can screen compounds against all ˜42 bromodomains (a service called BROMOscan) and perform follow-up KD determination. This service is considered the industrial standard for bromodomain inhibitor comparisons.
# [17] = molecular target: BRD4(1) (Homo sapiens (Human), UniProt O60885); assay: BROMOscan KD determination; assay type: binding; details: Table 10
# Description: as §5
# [18] = molecular target: BRD3(1) (Homo sapiens (Human), UniProt Q15059); assay: BROMOscan KD determination; assay type: binding; details: Table 10
# Description: as §5
# [19] = molecular target: BRD3(2) (Homo sapiens (Human), UniProt Q15059); assay: BROMOscan KD determination; assay type: binding
# Description: as §5
# [20] = tested on: Loucy; assay: anti-proliferative activity; assay type: cell-based; details: Table 5
# Description: as §1, §2
# [21] = tested on: neural crest tumor cell lines; assay: activity versus neural crest tumor cell lines; assay type: cell-based; details: several neural crest tumor cell lines; read-out: IC50 ranges
# [22] = tested on: BRD2-BD2; assay: isothermal titration calorimetry analysis of binding; details: ITC Kd BRD2-BD1 / BRD2-BD2
# Description: (§6) b. Isothermal Titration Calorimetry Analysis of Binding to Brd2-BD1 and Brd2-BD2
# (§7) Binding of compounds to BRD2 was monitored using an ITC200 (Microcal, Piscataway, N.J.). Either Brd2.1 (74-194) or Brd2.2 (348-455) was dialyzed overnight into a solution containing 50 mM HEPES, pH 7.0 and 150 mM NaCl at 15° C. Enzyme concentrations were determined after dialysis by absorbance at 280 nm using a molar extinction coefficient (ε280) of 25,565 M^−1 cm^−1 (2.1) or 16,055 M^−1 cm^−1 (2.2). Enzyme was diluted in dialysis buffer and 39.6 μL was loaded into the syringe. Compounds were dissolved in the same dialysis buffer and loaded in the cell to a volume of 204 μL. Injections were carried out by serial injections of enzyme; first, 1 injection of 1 μL, followed by 19 incremental injections of 2 μL, at 120 second intervals. Data from the first injection was excluded, due to pre-equilibration mixing between the contents of cell and syringe at the syringe tip. Peak areas were integrated, normalized, and then fitted by non-linear regression using the independent sites model in Origin™ (version 2.3.6, Microcal, Piscataway, N.J.).
# [23] = molecular target: T1, BRD2-BD2; assay: as above; details: ITC; for ΔG / ΔH / −TΔS: BRD2-BD2; for Kd: BRD2-BD2, average of 3 experiments, read-out: average Kd
# Description: as §6, §7
# Target sequence in this assay (P25440 348-455): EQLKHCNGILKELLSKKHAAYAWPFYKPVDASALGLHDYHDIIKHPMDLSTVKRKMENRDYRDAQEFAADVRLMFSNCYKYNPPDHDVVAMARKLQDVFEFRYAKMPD
# [24] = molecular target: T2, BRD2-BD1; assay: as above; details: ITC; for ΔG / ΔH / −TΔS: BRD2-BD1; for Kd: BRD2-BD1, average of 3 experiments, read-out: average Kd
# Description: as §6, §7
# Target sequence in this assay (P25440 74-194): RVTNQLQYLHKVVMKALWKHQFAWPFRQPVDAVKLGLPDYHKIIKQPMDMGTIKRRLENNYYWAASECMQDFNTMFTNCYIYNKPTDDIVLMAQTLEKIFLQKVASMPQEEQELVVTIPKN
# [25] = HD-MB03, Table 5, read-out: EC50 (μM) Myc-inhibition
# [26] = HD-MB03, Table 5, read-out: EC50 (μM) HDMB03
# Chain of BRD3-BD1 (Q15059 34-140): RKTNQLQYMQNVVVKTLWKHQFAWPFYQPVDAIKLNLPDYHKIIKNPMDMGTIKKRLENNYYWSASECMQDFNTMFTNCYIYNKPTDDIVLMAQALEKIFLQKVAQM
# Chain of BRD2(2) (P25440 344-453): as the sequence (P25440 344-453) above
# Chain of BRD3(2) (Q15059 306-415): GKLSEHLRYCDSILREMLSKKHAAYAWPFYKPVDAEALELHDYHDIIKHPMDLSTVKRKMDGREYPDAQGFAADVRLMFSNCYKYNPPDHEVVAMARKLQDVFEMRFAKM
# Chain of BRD2(1) (P25440 74-180): as the sequence (P25440 74-180) above
# Chain of BRD3(1) (Q15059 34-140): as the sequence (Q15059 34-140) above
"EC50 [3, 25] [µM]",EC50 [5] [nM],4(1)/4(2) [6],Compound,EC50 [2] [µM],"EC50 [4, 26] [µM]",Selectivity (2-1/2-2) [22],ΔG [23] [kcal/mol],ΔH [23] [kcal/mol],−TΔS [23] [kcal/mol],Kd [23] [nM],ΔG [24] [kcal/mol],ΔH [24] [kcal/mol],−TΔS [24] [kcal/mol],Kd [24] [nM],IC50 [6] [nM],IC50 [7] [nM],IC50 [8] [nM],BD1/BD2 [8],IC50 [9] [nM],IC50 [10] [nM],further results
,,,COc1cc(OC)c2c(=O)[nH]c(-c3cc(C)c(OCCO)c(C)c3)nc2c1 [RVX-208],,,,,,,,,,,,,,,,,,c-Myc oncogene expression [1]: did not inhibit c-Myc oncogene expression
0.68,3700,15,CC(=O)Nc1cccc(-c2ccc3c(c2)[C@H](Nc2ccc(Cl)cc2)C[C@H](C)N3C(C)=O)c1 [compound 10],0.33,1.18,,,,,,,,,,,,,,,,EC50 [6]: 0.21 µM; EC50 [7]: 1900 nM; [2(1)/2(2)] [8]: 33; EC50 [8]: 0.08 µM; EC50 [9]: 2.6 µM; EC50 [10]: 3.1 µM
0.11,10000,59,CC(=O)Nc1cccc(-c2ccc3c(c2)[C@H](Nc2ccccc2OC(F)(F)F)C[C@H](C)N3C(C)=O)c1 [compound 19],> 1.7,1.14,,,,,,,,,,,,,,,,"Kd [11]: 170 nM; T(1)/T(2) ([12]; BROMOscan KD ratio): 6.5; Kd ([12]; BROMOscan, Table 10): 11 nM; [2(1)/2(2)] ([13]; BROMOscan KD ratio): 48.6; Kd ([13]; BROMOscan, Table 10): 3.5 nM; Kd [14]: 72 nM; EC50 [15]: 0.04 µM; 4(1)/4(2) ([16]; BROMOscan KD ratio): 58.2; Kd ([16]; BROMOscan, Table 10): 1.7 nM; Kd [17]: 99 nM; Kd [18]: 110 nM; 3(1)/3(2) ([19]; BROMOscan KD ratio): 84.6; Kd ([19]; BROMOscan, Table 10): 1.3 nM; EC50 [6]: 0.14 µM; EC50 [7]: 5400 nM; [2(1)/2(2)] [8]: 52; EC50 [8]: 0.16 µM; EC50 [9]: 8.3 µM; EC50 [10]: 8.3 µM"
0.49,9100,52.9,COc1ccccc1N[C@@H]1C[C@H](C)N(C(C)=O)c2ccc(-c3cccc(NC(C)=O)c3)cc21 [compound 40],0.26,17.6,,,,,,,,,,,,,,,,EC50 [15]: 0.02 µM; EC50 [20]: 0.32 µM; IC50 [21]: 50 to 200 nM; EC50 [6]: 0.1 µM; EC50 [7]: 2000 nM; [2(1)/2(2)] [8]: 75; EC50 [8]: 0.06 µM; EC50 [9]: 4.2 µM; EC50 [10]: 6 µM
,,,CC(=O)N1c2ccc(-c3ccoc3)cc2[C@H](NC(=O)OC(C)C)C[C@@H]1C [compound 51],,,0.5,-8.61,-6.31,-2.29,300,-8.96,-9.90,0.94,162,4300,2300,1420,5,7230,5800,"EC50 ([3]; HD-MB03, HDMB03 cells, read-out: c-Myc expression EC50): 1 µM; EC50 ([4]; HD-MB03, HDMB03 cells, read-out: cell viability EC50): 3.3 µM; IC50 [5]: 23000 nM"
,,,CC(=O)N1c2ccc(-c3cccs3)cc2[C@H](NC(=O)OC(C)C)C[C@@H]1C [compound 52],,,2.9,-10.12,-7.18,-2.94,20.9,-9.52,-8.27,-1.25,61.3,3000,1200,340,5,1680,> 77800,
,,,CC(=O)N1c2ccc(-c3ccsc3)cc2[C@H](NC(=O)OC(C)C)C[C@@H]1C [compound 53],,,4.2,-10.25,-6.92,-3.33,17.1,-9.43,-7.69,-1.74,71.7,4600,3100,970,7,7210,14000,
,,,CC(=O)N1c2ccc(-c3ccc[nH]3)cc2[C@H](NC(=O)OC(C)C)C[C@@H]1C [compound 54],,,3.7,-9.82,-6.89,-2.92,35.9,-9.08,-6.90,-2.18,131,8500,5600,> 48600,,1550,1700,
,,,CC(=O)N1c2ccc(-c3cc[nH]c3)cc2[C@H](NC(=O)OC(C)C)C[C@@H]1C [compound 55],,,4.6,-10.15,-7.01,-3.32,19.9,-9.28,-7.33,-1.95,91.5,1200,260,370,5,1710,1300,IC50 [5]: 49000 nM
